Patent publication US12102063B2 (SYNEXIS LLC, priority 2017, dated 2024)
“And” between values parts separate entries of the source, which are not always exact repeats. Equal values may be shown once. Read-outs that look alike come from different tables or passages of the source.

Assays:
[1] = tested on: MS2 Bacteriophage ATCC 15597-B1
E. coli K12 = details: for Log10 reduction / Log10 reduction vs. Control: DHP (+)
[2] = tested on: bacteria on commercial hatching eggs; details: DHP about 0.1 ppm, P=0.05
Method: As a control, sixty (60) commercial eggs are placed into a biosafety cabinet with the window closed. […] Sixty (60) commercial hatching eggs (test eggs) are placed in the room and both the control and test eggs are sampled, 10 eggs each, four times over the course of five (5) days at 0 hours, 24 hours, 72 hours, and 120 hours.
For sampling, individual eggs are placed in Whirl-Pak bags containing 10 milliliters (ml) of tryptic soy broth and manually rubbed in bag for 1 minute each. The washed eggs are discarded. One (1) ml from each sample is transferred to a deep well plate in triplicate and 10 fold serial dilutions performed with tryptic soy broth to 10−^11 dilution. The deep well plates are incubated for 24 hours at 37° C. After incubation, 5 microliters (5 μl) of each well is stamped onto a 96-well plate containing either tryptic soy agar (TSA) or MacConkey (Macx) agar. TSA agar is a non-selective, general purpose media. Macx agar is a selective, differential culture media for Gram-negative enteric bacilli. The agar plates are incubated 24 hours at 37° C. and then scored for bacterial growth.
Bacterial growth is scored using a Most Probable Number (MPN) calculation.

[3] = tested on: C. difficile (endospores) ATCC 43598
[4] = Day 4 DHP+, summary of replicates stored 4 days
[5] = Day 5 DHP+, summary of replicates stored 5 days
[6] = Day 6 DHP+, summary of replicates stored 6 days
[7] = Day 7 DHP+, summary of replicates stored 7 days
[8] = Delta Avg. Trtd versus Avg. Untrd, egg storage 4 to 7 days
[9] = Mean / Avg. Trtd, 22 DHP replicates, egg storage 4 to 7 days
[10] = with DHP, egg storage 4 days, single replicate of 90 eggs
[11] = with DHP, egg storage 5 days, single replicate of 90 eggs
[12] = with DHP, egg storage 6 days, single replicate of 90 eggs
[13] = with DHP, egg storage 7 days, single replicate of 90 eggs
[14] = second contact time (48 hours), Hood (Treated)
[15] = second contact time (48 hours), Room (Treated)

Method for eggs and hatched chicks: A total of 22 replicates of 90 eggs each of age matched, flock matched eggs are stored prior to incubation for 4 to 7 days in an on-site egg room at about 20° C. […] The paired replicates are then incubated to hatching under standard commercial conditions. At hatching, the following parameters are assessed and recorded: Total Hatchability (%), Fertile Hatchability (%),% Infertile, Early dead (%), Mid dead (%), Late dead (%), Cracked (%), Contaminated (%), Live pip (%), Dead pip (%), Cull dead chick (%), Chick Weight (g), Chick A (%), and Chick B (%).

OO [DHP, dry hydrogen peroxide]
Log10 reduction ([1]; DHP (+), 1 hour): 3.54 Log10
Log10 reduction vs. Control ([1]; DHP (+), 1 hour): 2.70 Log10
elimination of airborne phage ([1]; within one hour): essentially eliminated
% Infertile, delta (eggs and hatched chicks; 4 day delta, DHP+ versus DHP−): 0.64%
Chick A, delta (eggs and hatched chicks; 4 day delta, DHP+ versus DHP−): 0.14%
Chick B, delta (eggs and hatched chicks; 4 day delta, DHP+ versus DHP−): −0.14%
Chick Weight, delta (eggs and hatched chicks; 4 day delta, DHP+ versus DHP−): 0.89 g
Cont, delta (eggs and hatched chicks; 4 day delta, DHP+ versus DHP−): 0.00%
Crack, delta (eggs and hatched chicks; 4 day delta, DHP+ versus DHP−): 0.32%
Cull dead cks, delta (eggs and hatched chicks; 4 day delta, DHP+ versus DHP−): 0.00%
Dead pip, delta (eggs and hatched chicks; 4 day delta, DHP+ versus DHP−): −0.16%
Early dead, delta (eggs and hatched chicks; 4 day delta, DHP+ versus DHP−): −0.33%
Fertile Hatchability, delta (eggs and hatched chicks; 4 day delta, DHP+ versus DHP−): 0.12%
Late dead, delta (eggs and hatched chicks; 4 day delta, DHP+ versus DHP−): −0.64%
Live pip, delta (eggs and hatched chicks; 4 day delta, DHP+ versus DHP−): 0.63%
Mid dead, delta (eggs and hatched chicks; 4 day delta, DHP+ versus DHP−): 0.16%
Total Hatchability, delta (eggs and hatched chicks; 4 day delta, DHP+ versus DHP−): −0.64%
Chick Weight, delta (eggs and hatched chicks; 5 day delta, DHP+ versus DHP−): 0.85 g
Cont, delta (eggs and hatched chicks; 5 day delta, DHP+ versus DHP−): 0.00%
Crack, delta (eggs and hatched chicks; 5 day delta, DHP+ versus DHP−): −0.19%
Cull dead cks, delta (eggs and hatched chicks; 5 day delta, DHP+ versus DHP−): 0.00%
Dead pip, delta (eggs and hatched chicks; 5 day delta, DHP+ versus DHP−): −0.37%
Early dead, delta (eggs and hatched chicks; 5 day delta, DHP+ versus DHP−): −1.70%
Fertile Hatchability, delta (eggs and hatched chicks; 5 day delta, DHP+ versus DHP−): 3.20%
Live pip, delta (eggs and hatched chicks; 5 day delta, DHP+ versus DHP−): 0.37%
Mid dead, delta (eggs and hatched chicks; 5 day delta, DHP+ versus DHP−): 0.74%
% Infertile, delta (eggs and hatched chicks; 6 day delta, DHP+ versus DHP−): 0.94%
Chick A, delta (eggs and hatched chicks; 6 day delta, DHP+ versus DHP−): −0.57%
Chick B, delta (eggs and hatched chicks; 6 day delta, DHP+ versus DHP−): 0.57%
Chick Weight, delta (eggs and hatched chicks; 6 day delta, DHP+ versus DHP−): 0.49 g
Cont, delta (eggs and hatched chicks; 6 day delta, DHP+ versus DHP−): 0.00%
Crack, delta (eggs and hatched chicks; 6 day delta, DHP+ versus DHP−): 0.00%
Cull dead cks, delta (eggs and hatched chicks; 6 day delta, DHP+ versus DHP−): −0.48%
Dead pip, delta (eggs and hatched chicks; 6 day delta, DHP+ versus DHP−): −0.48%
Late dead, delta (eggs and hatched chicks; 6 day delta, DHP+ versus DHP−): −0.82%
Live pip, delta (eggs and hatched chicks; 6 day delta, DHP+ versus DHP−): −0.16%
Mid dead, delta (eggs and hatched chicks; 6 day delta, DHP+ versus DHP−): 0.48%
Cont (eggs and hatched chicks; [4]): 0.00%
Crack (eggs and hatched chicks; [4]): 0.48%
Cull dead cks (eggs and hatched chicks; [4]): 0.00%
Dead pip (eggs and hatched chicks; [4]): 0.16%
Live pip (eggs and hatched chicks; [4]): 0.95%
Mid dead (eggs and hatched chicks; [4]): 0.16%
Cont (eggs and hatched chicks; [5]): 0.00%
Crack (eggs and hatched chicks; [5]): 0.00%
Cull dead cks (eggs and hatched chicks; [5]): 0.00%
Dead pip (eggs and hatched chicks; [5]): 0.00%
Live pip (eggs and hatched chicks; [5]): 0.56%
Mid dead (eggs and hatched chicks; [5]): 0.93%
Cont (eggs and hatched chicks; [6]): 0.00%
Crack (eggs and hatched chicks; [6]): 0.00%
Cull dead cks (eggs and hatched chicks; [6]): 0.00%
Dead pip (eggs and hatched chicks; [6]): 0.00%
Early dead (eggs and hatched chicks; [6]): 2.70%
Live pip (eggs and hatched chicks; [6]): 0.16%
Mid dead (eggs and hatched chicks; [6]): 0.79%
% Infertile (eggs and hatched chicks; [7]): 0.56%
Cont (eggs and hatched chicks; [7]): 0.00%
Crack (eggs and hatched chicks; [7]): 0.00%
Cull dead cks (eggs and hatched chicks; [7]): 0.56%
Dead pip (eggs and hatched chicks; [7]): 0.00%
Mid dead (eggs and hatched chicks; [7]): 0.56%
% Infertile, delta (eggs and hatched chicks; Day 7 Delta, DHP+ versus DHP−): 0.00%
Chick Weight, delta (eggs and hatched chicks; Day 7 Delta, DHP+ versus DHP−): 1.10 g
Cont, delta (eggs and hatched chicks; Day 7 Delta, DHP+ versus DHP−): −0.56%
Crack, delta (eggs and hatched chicks; Day 7 Delta, DHP+ versus DHP−): 0.00%
Cull dead cks, delta (eggs and hatched chicks; Day 7 Delta, DHP+ versus DHP−): 0.56%
Dead pip, delta (eggs and hatched chicks; Day 7 Delta, DHP+ versus DHP−): 0.00%
Fertile Hatchability, delta (eggs and hatched chicks; Day 7 Delta, DHP+ versus DHP−): 0.56%
Late dead, delta (eggs and hatched chicks; Day 7 Delta, DHP+ versus DHP−): 0.55%
Mid dead, delta (eggs and hatched chicks; Day 7 Delta, DHP+ versus DHP−): 0.56%
Total Hatchability, delta (eggs and hatched chicks; Day 7 Delta, DHP+ versus DHP−): 0.56%
% Infertile, delta (eggs and hatched chicks; [8]): 1.00%
Chick A, delta (eggs and hatched chicks; [8]): 0.23%
Chick B, delta (eggs and hatched chicks; [8]): −0.23%
Chick Weight, delta (eggs and hatched chicks; [8]): 0.77 g
Cont, delta (eggs and hatched chicks; [8]): −0.05%
Crack, delta (eggs and hatched chicks; [8]): 0.05%
Cull dead cks, delta (eggs and hatched chicks; [8]): −0.10%
Dead pip, delta (eggs and hatched chicks; [8]): −0.30%
Early dead, delta (eggs and hatched chicks; [8]): −1.70%
Late dead, delta (eggs and hatched chicks; [8]): −0.97%
Live pip, delta (eggs and hatched chicks; [8]): 0.35%
Mid dead, delta (eggs and hatched chicks; [8]): 0.45%
Cont (eggs and hatched chicks; [9]): 0.00%
Crack (eggs and hatched chicks; [9]): 0.15%
Cull dead cks (eggs and hatched chicks; [9]): 0.05%
Dead pip (eggs and hatched chicks; [9]): 0.05%
Live pip (eggs and hatched chicks; [9]): 0.61%
Mid dead (eggs and hatched chicks; [9]): 0.61%
improvement in number of A grade chicks (eggs and hatched chicks; all storage times): 0.23%
increase of fertile hatchability vs untreated (eggs and hatched chicks; an additional day (five days)): 3.2%
increase of total hatchability vs untreated (eggs and hatched chicks; an additional day (five days)): 1.3%
increased weight vs untreated (eggs and hatched chicks; an additional day (five days)): 0.85 grams
DHP gas treated eggs observed to be contaminated (eggs and hatched chicks; at day 7): none
decrease of number of early deaths (eggs and hatched chicks; death during incubation): about 1.7%
mid cycle deaths (eggs and hatched chicks; death during incubation): decreased
change of fertile hatchability vs untreated (eggs and hatched chicks; eggs treated four days): +0.12
change of total hatchability vs untreated (eggs and hatched chicks; eggs treated four days): −0.64%
increased weight vs untreated (eggs and hatched chicks; eggs treated four days): +0.89 g
increase of fertile hatchability vs untreated (eggs and hatched chicks; seven day storage): 0.56%
increase of total hatchability vs untreated (eggs and hatched chicks; seven day storage): 0.56%
increased weight vs untreated (eggs and hatched chicks; seven day storage): 1.10 grams
increase of fertile hatchability vs untreated (eggs and hatched chicks; six days): 4.67%
increase of total hatchability vs untreated (eggs and hatched chicks; six days): 2.96%
increased weight vs untreated (eggs and hatched chicks; six days): 0.49 grams
number of live pip eggs (eggs and hatched chicks; vs untreated): increases
% Infer (eggs and hatched chicks; [10]): 0.00%
Chick B (eggs and hatched chicks; [10]): 2.40% and 4.80% and 3.70%
Cont (eggs and hatched chicks; [10]): 0.00%
Crack (eggs and hatched chicks; [10]): 0.00%
Cull dead (eggs and hatched chicks; [10]): 0.00%
Dead pip (eggs and hatched chicks; [10]): 0.00%
Late dead (eggs and hatched chicks; [10]): 0.00%
Live pip (eggs and hatched chicks; [10]): 0.00%
Mid dead (eggs and hatched chicks; [10]): 0.00%
% Infer (eggs and hatched chicks; [11]): 10.00%
Chick A (eggs and hatched chicks; [11]): 100.0%
Cont (eggs and hatched chicks; [11]): 0.00%
Crack (eggs and hatched chicks; [11]): 0.00%
Cull dead (eggs and hatched chicks; [11]): 0.00%
Dead pip (eggs and hatched chicks; [11]): 0.00%
Late dead (eggs and hatched chicks; [11]): 0.00%
Live pip (eggs and hatched chicks; [11]): 0.00%
Mid dead (eggs and hatched chicks; [11]): 0.00%
Total Hatchblty (eggs and hatched chicks; [11]): 90.00%
% Infer (eggs and hatched chicks; [12]): 0.00%
Chick B (eggs and hatched chicks; [12]): 4.80%
Cont (eggs and hatched chicks; [12]): 0.00%
Crack (eggs and hatched chicks; [12]): 0.00%
Cull dead (eggs and hatched chicks; [12]): 0.00%
Dead pip (eggs and hatched chicks; [12]): 0.00%
Late dead (eggs and hatched chicks; [12]): 0.00%
Live pip (eggs and hatched chicks; [12]): 0.00%
Mid dead (eggs and hatched chicks; [12]): 0.00%
Total Hatchblty (eggs and hatched chicks; [12]): 90.00%
% Infer (eggs and hatched chicks; [13]): 0.00%
Check Weight (eggs and hatched chicks; [13]): 44.94 g and 44.41 g
Cont (eggs and hatched chicks; [13]): 0.00%
Crack (eggs and hatched chicks; [13]): 0.00%
Cull dead (eggs and hatched chicks; [13]): 0.00%
Dead pip (eggs and hatched chicks; [13]): 0.00%
Live pip (eggs and hatched chicks; [13]): 0.00%
Mid dead (eggs and hatched chicks; [13]): 0.00%
Log10 reduction (E. coli K12; 1 hour): >4.78 Log10
Log10 reduction vs. Control (E. coli K12; 1 hour): 2.82 Log10
Log10 reduction (E. coli K12; 2 hours): >4.79 Log10
Log10 reduction vs. Control (E. coli K12; 2 hours): 1.71 Log10
elimination of aerosolized bacteria from the DHP treated space (E. coli K12; within one hour): essentially eliminated
number of bacteria growing on TSA ([2]; after 72 hours): significantly reduced
number of bacteria growing on TSA ([2]; after 120 hours): significantly reduced
Average CFU/Carrier ([3]; 24 Hours, Hood (Treated)): 2.75E+06 CFU/Carrier
Log Reduction compared to Control ([3]; 24 Hours, Hood (Treated)): None
Percent Reduction compared to Control ([3]; 24 Hours, Hood (Treated)): None
Average CFU/Carrier ([3]; 24 Hours, Room (Treated)): 1.53E+06 CFU/Carrier
Log Reduction compared to Control ([3]; 24 Hours, Room (Treated)): 0.07 Log
Percent Reduction compared to Control ([3]; 24 Hours, Room (Treated)): 13.96%
Average CFU/Carrier ([3]; 72 Hours, Hood (Treated)): 1.80E+06 CFU/Carrier
Log Reduction compared to Control ([3]; 72 Hours, Hood (Treated)): 0.31 Log
Percent Reduction compared to Control ([3]; 72 Hours, Hood (Treated)): 51.02%
Average CFU/Carrier ([3]; 72 Hours, Room (Treated)): 3.35E+06 CFU/Carrier
Log Reduction compared to Control ([3]; 72 Hours, Room (Treated)): 0.04 Log
Percent Reduction compared to Control ([3]; 72 Hours, Room (Treated)): 8.84%
Average CFU/Carrier [3, 14]: 3.10E+06 CFU/Carrier
Log Reduction compared to Control [3, 14]: 0.24 Log
Percent Reduction compared to Control [3, 14]: 42.06%
Average CFU/Carrier [3, 15]: 3.53E+06 CFU/Carrier
Log Reduction compared to Control [3, 15]: 0.18 Log
Percent Reduction compared to Control [3, 15]: 34.11%
